Laboratory results from ChEMBL document CHEMBL3228028, “Enzyme affinity of the 5,6-dihydro derivatives of the substrate and product of thymidylate synthetase catalysis” (J Med Chem, 1979).

Tests used:
[1] = target: T1, Thymidylate synthase (Lactobacillus casei, UniProt P00469); assay: Competitive inhibition of Lactobacillus casei thymidylate synthetase using 2'-deoxy[5-3H]uridine-5'-phosphate as substrate assessed as release of water after 15 mins by double reciprocal plot analysis; set-up: species or system Lacticaseibacillus casei
T1 sequence (P00469 whole entry): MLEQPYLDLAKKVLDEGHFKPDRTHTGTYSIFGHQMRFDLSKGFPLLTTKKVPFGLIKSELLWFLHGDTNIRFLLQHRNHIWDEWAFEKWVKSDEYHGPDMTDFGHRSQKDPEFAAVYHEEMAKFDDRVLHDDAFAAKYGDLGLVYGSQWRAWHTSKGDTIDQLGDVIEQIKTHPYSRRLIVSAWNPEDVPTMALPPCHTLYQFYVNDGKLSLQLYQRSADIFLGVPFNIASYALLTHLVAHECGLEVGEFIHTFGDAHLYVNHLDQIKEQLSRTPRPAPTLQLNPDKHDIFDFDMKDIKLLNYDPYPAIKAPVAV

[2] = target: T1, Thymidylate synthase; assay: Competitive inhibition of Lactobacillus casei thymidylate synthetase using dTMP as substrate assessed as release of water after 15 mins by double reciprocal plot analysis; set-up: species or system Lacticaseibacillus casei

SMILES | Ki [1] | Ki [2]
CC1CN([C@H]2C[C@H](O)[C@@H](COP(=O)(O)O)O2)C(=O)NC1=O (stereo partly drawn) | 150 µM | 
O=C1CCN([C@H]2C[C@H](O)[C@@H](COP(=O)(O)O)O2)C(=O)N1 | 100 µM | 2.8 µM
